Results as given in patent US20210113501A1, “METHOD OF ADMINISTERING BETA-HYDROXY-BETA-METHYLBUTYRATE (HMB)” (Metabolic Technologies, Inc., priority 2009, published 2021).

Assay: Study 2 hematology
Type: in vivo, human
Settings: for Basophils (absolute) % Change / Basophils, % - % Change / Eosinophils (absolute) % Change / Eosinophils, % - % Change / Hematocrit % Change / Hemoglobin % Change / Lymphocytes (absolute) % Change / Lymphocytes, % - % Change / MCH % Change / MCHC % Change / MCV % Change / Monocytes (absolute) % Change / Monocytes, % - % Change / Neutrophils (absolute) % Change / Neutrophils, % - % Change / Platelets % Change / RBC % Change / RDW % Change / WBC % Change: Before to After
Method: Study 2 design. Study 2 was conducted similar to study 1 with the following modifications. In study 2, plasma levels of HMB were measured for 1440 min (24 h) and total urine collection was also performed for measurement of urinary HMB excretion during this period. After the 180 min blood sample, the subjects were allowed to leave the laboratory and were instructed to return to the laboratory for additional blood samples at 360, 720, and 1440 min after the ingestion of the supplement. As in study 1, each subject took each of the treatments with at least a one week washout period between treatments. Samples were again stored frozen at −70° C. for analysis of plasma and urinary HMB concentrations. Pre-ingestion, 180 min and 1440 min blood samples were again assayed for the same measurements already for study 1. Subjects were provided with a standardized lunch after the 180 min blood sampling and instructed to eat this at approximately 240 min post ingestion. Following the 720 min blood sample, subjects were instructed to eat a normal evening meal before 10 pm. Subjects reported back to the laboratory the following morning for the fasted 1440 min blood sample. A urine collection container was provided and subjects collected all urine produced during the experimental 24 h experimental period. The urine was stored refrigerated when not being collected. Urine volumes were measured and samples of the total urine collection were taken and stored frozen at −70° C. until analyzed for HMB.
The data were analyzed using a crossover design with Proc GLM in SAS. (45) For the timed sampling of plasma HMB a repeated measures polynomial model was used. The model included subject, order, and treatment main effects and time by treatment interaction where appropriate. For other parameters Proc GLM was also used with subject, order, and treatment main effects and the p values are reported for the treatment main effect. Statistical significance was determined for p<0.05 and a trend was determined for 0.05<p<0.10.

## CC(C)(O)CC(=O)O [HMB-Acid Gel Sublingual, 3-hydroxy-3-methylbutyric acid]
After (24 h)
  Basophils (absolute): 0.04 ± 0.0 ×10^3/μL
  Basophils, %: 0.4 ± 0.2%
  Eosinophils (absolute): 0.2 ± 0.03 ×10^3/μL
  Eosinophils, %: 3.3 ± 0.5%
  Hematocrit: 38.6 ± 1.3%
  Hemoglobin: 13.2 ± 0.5 g/dL
  Lymphocytes (absolute): 3.1 ± 0.3 ×10^3/μL
  Lymphocytes, %: 45.6 ± 3.4%
  MCH: 30.5 ± 0.5 pg
  MCHC: 34.5 ± 0.2 g/dL
  MCV: 89.3 ± 1.4 fL
  Monocytes (absolute): 0.6 ± 0.05 ×10^3/μL
  Monocytes, %: 8.4 ± 0.9%
  Neutrophils (absolute): 2.9 ± 0.3 ×10^3/μL
  Neutrophils, %: 42.4 ± 3.5%
  Platelets: 244.3 ± 17.5 ×10^3/μL
  RBC: 4.3 ± 0.1 ×10^6/µL
  RDW: 13.4 ± 0.2%
  WBC: 6.8 ± 0.3 ×10^3/μL
Before
  Basophils (absolute): 0.06 ± 0.02 ×10^3/μL
  Basophils, %: 0.6 ± 0.2%
  Eosinophils (absolute): 0.2 ± 0.04 ×10^3/μL
  Eosinophils, %: 2.5 ± 0.5%
  Hematocrit: 37.5 ± 1.4%
  Hemoglobin: 13.2 ± 0.5 g/dL
  Lymphocytes (absolute): 3.0 ± 0.3 ×10^3/μL
  Lymphocytes, %: 43.1 ± 4.2%
  MCH: 30.4 ± 0.5 pg
  MCHC: 34.5 ± 0.2 g/dL
  MCV: 88.4 ± 1.5 fL
  Monocytes (absolute): 0.6 ± 0.05 ×10^3/μL
  Monocytes, %: 8.3 ± 1.0%
  Neutrophils (absolute): 3.3 ± 0.5 ×10^3/μL
  Neutrophils, %: 45.3 ± 5.2%
  Platelets: 233.8 ± 14.2 ×10^3/μL
  RBC: 4.3 ± 0.1 ×10^6/µL
  RDW: 13.3 ± 0.2%
  WBC: 7.1 ± 0.4 ×10^3/μL
  Basophils (absolute) % Change: −40.0%
  Basophils, % - % Change: −40.0%
  Eosinophils (absolute) % Change: 35.7%
  Eosinophils, % - % Change: 30.0%
  Hematocrit % Change: 2.9%
  Hemoglobin % Change: 0.4%
  Lymphocytes (absolute) % Change: 5.0%
  Lymphocytes, % - % Change: 5.8%
  MCH % Change: 0.3%
  MCHC % Change: 0.1%
  MCV % Change: 1.0%
  Monocytes (absolute) % Change: 0.0%
  Monocytes, % - % Change: 1.5%
  Neutrophils (absolute) % Change: −12.1%
  Neutrophils, % - % Change: −6.4%
  Platelets % Change: 4.5%
  RBC % Change: 0.1%
  RDW % Change: 0.7%
  WBC % Change: −3.5%

## CC(C)(O)CC(=O)O [HMB-Acid Gel Swallow, 3-hydroxy-3-methylbutyric acid]
After (24 h)
  Basophils (absolute): 0.09 ± 0.03 ×10^3/μL
  Basophils, %: 0.9 ± 0.3%
  Eosinophils (absolute): 0.2 ± 0.04 ×10^3/μL
  Eosinophils, %: 3.0 ± 0.5%
  Hematocrit: 38.9 ± 1.1%
  Hemoglobin: 13.4 ± 0.4 g/dL
  Lymphocytes (absolute): 3.1 ± 0.3 ×10^3/μL
  Lymphocytes, %: 43.3 ± 3.9%
  MCH: 30.5 ± 0.6 pg
  MCHC: 34.5 ± 0.2 g/dL
  MCV: 88.6 ± 1.5 fL
  Monocytes (absolute): 0.5 ± 0.04 ×10^3/μL
  Monocytes, %: 6.9 ± 0.8%
  Neutrophils (absolute): 3.3 ± 0.4 ×10^3/μL
  Neutrophils, %: 46.0 ± 4.4%
  Platelets: 242.4 ± 12.2 ×10^3/μL
  RBC: 4.4 ± 0.1 ×10^6/µL
  RDW: 13.2 ± 0.2%
  WBC: 7.1 ± 0.3 ×10^3/μL
Before
  Basophils (absolute): 0.05 ± 0.02 ×10^3/μL
  Basophils, %: 0.5 ± 0.2%
  Eosinophils (absolute): 0.2 ± 0.03 ×10^3/μL
  Eosinophils, %: 2.8 ± 0.5%
  Hematocrit: 37.4 ± 1.0%
  Hemoglobin: 13.0 ± 0.4 g/dL
  Lymphocytes (absolute): 2.8 ± 0.2 ×10^3/μL
  Lymphocytes, %: 43.6 ± 2.4%
  MCH: 30.6 ± 0.6 pg
  MCHC: 34.8 ± 0.2 g/dL
  MCV: 88.1 ± 1.5 fL
  Monocytes (absolute): 0.5 ± 0.1 ×10^3/μL
  Monocytes, %: 7.5 ± 1.1%
  Neutrophils (absolute): 2.9 ± 0.2 ×10^3/μL
  Neutrophils, %: 45.6 ± 2.7%
  Platelets: 229.0 ± 12.9 ×10^3/μL
  RBC: 4.2 ± 0.1 ×10^6/µL
  RDW: 13.3 ± 0.2%
  WBC: 6.4 ± 0.3 ×10^3/μL
  Basophils (absolute) % Change: 75.0%
  Basophils, % - % Change: 75.0%
  Eosinophils (absolute) % Change: 13.3%
  Eosinophils, % - % Change: 9.1%
  Hematocrit % Change: 4.2%
  Hemoglobin % Change: 3.2%
  Lymphocytes (absolute) % Change: 9.4%
  Lymphocytes, % - % Change: −0.9%
  MCH % Change: −0.3%
  MCHC % Change: −0.8%
  MCV % Change: 0.6%
  Monocytes (absolute) % Change: 2.6%
  Monocytes, % - % Change: −8.3%
  Neutrophils (absolute) % Change: 10.6%
  Neutrophils, % - % Change: 0.8%
  Platelets % Change: 5.8%
  RBC % Change: 3.5%
  RDW % Change: −0.5%
  WBC % Change: 9.7%
